Source: ChEMBL document CHEMBL2163320, “Benzofuranones as potential antinociceptive agents: structure-activity relationships” (2012)

Columns and labels:
Mus musculus [1] = assay: Antinociceptive activity in Swiss mouse assessed as inhibition of acetic acid-induced abdominal constriction at 30 mg/kg administered 30 to 60 mins prior to acetic acid challenge measured over 20 mins by writhing test; format: functional, Abdomen
Mus musculus [2] = assay: Antinociceptive activity in Swiss mouse assessed as inhibition of acetic acid-induced abdominal constriction at 10 mg/kg administered 30 to 60 mins prior to acetic acid challenge measured over 20 mins by writhing test; format: functional, Abdomen
Mus musculus [3] = assay: Antinociceptive activity in Swiss mouse assessed as inhibition of acetic acid-induced abdominal constriction administered 30 to 60 mins prior to acetic acid challenge measured over 20 mins by writhing test; format: functional; conditions: Abdomen; for ED50: read-out: ID50 (the source's name)

Row | SMILES | Imax (Mus musculus [1]) | Imax (Mus musculus [2]) | inhibition (Mus musculus [3]) | ED50 (Mus musculus [3])
1 | O=C(CC1OC(=O)c2ccccc21)c1ccc(Cl)cc1 (configuration not stated) | 97.7% | 73.5% | Dose-dependent effect | 33.7 µmol/kg
2 | O=C(CC1OC(=O)c2ccccc21)c1ccc(Cl)c(Cl)c1 (configuration not stated) | 90.7% | – | – | 34.6 µmol/kg
3 | COc1ccc(C(=O)CC2OC(=O)c3ccccc32)cc1OC (configuration not stated) | – | 49.4% | – | –
